# pEC50: −log10 of the molar value. Like-named read-outs stand apart in the source and are kept apart here. Numbered stars: 1 amine (or outer) side, 2 acyl side, 3 side chain; on linkers, the order of the positions; unused ones are H or OH. Square brackets hold non-standard residues; d marks the D form. Side chains are listed from the residue outwards. Peptide text beside a SMILES is read from it. * marks the point of attachment. γGlu = O=C(O)[C@H](CCC(=O)[*:2])N[*:1]; αMeF = C[C@](N)(Cc1ccccc1)C(=O)O; αMeK = C[C@](N)(CCCCN)C(=O)O; Lauroyl = CCCCCCCCCCCC(=O)*; αMeS = C[C@](N)(CO)C(=O)O; AEEA = NCCOCCOCC(=O)O; Aib = CC(C)(N)C(=O)O
# Experiments:
# Format in all cases: cell-based
# [1] = target: T1, human glucagon receptor (GCGR) (Homo sapiens, UniProt P47871); assay: cAMP assay, human GCGR cells
# T1 construct: expressed in transfected cells
# T1 sequence (P47871 26-477): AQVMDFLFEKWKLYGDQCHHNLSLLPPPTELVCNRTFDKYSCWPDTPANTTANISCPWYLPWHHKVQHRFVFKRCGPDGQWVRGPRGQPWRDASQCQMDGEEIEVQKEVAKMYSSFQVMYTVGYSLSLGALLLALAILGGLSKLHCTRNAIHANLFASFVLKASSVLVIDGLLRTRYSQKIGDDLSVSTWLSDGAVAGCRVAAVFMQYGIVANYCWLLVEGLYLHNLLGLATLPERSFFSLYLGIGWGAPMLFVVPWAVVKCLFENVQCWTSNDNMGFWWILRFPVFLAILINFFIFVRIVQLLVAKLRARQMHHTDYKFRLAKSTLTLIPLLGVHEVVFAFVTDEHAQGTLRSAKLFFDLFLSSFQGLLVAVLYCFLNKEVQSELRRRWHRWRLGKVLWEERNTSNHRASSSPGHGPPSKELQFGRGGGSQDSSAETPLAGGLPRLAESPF
# Procedure: (§1) Sample dilutions are made in duplicate.
# (§2) A frozen cryo-vial of cells expressing the receptor of interest is thawed rapidly in a water-bath, transferred to pre-warmed assay buffer and spun at 240×g for 5 minutes. Cells are re-suspended in assay buffer at a batch-dependent optimized concentration (e.g. hGCGR cells at 2×10^5 cells/ml, hGLP-1R and hGIPR cells at 1×10^5 cells/ml).
# (§3) To this, 5 μL cell suspension is added and the plates incubated at room temperature for 30 minutes.
# (§4) cAMP levels are measured using a commercially available cAMP dynamic 2 HTRF kit (Cisbio, Cat #62AM4PEJ), following the two step protocol as per manufacturer's recommendations. In brief; anti-cAMP cryptate (donor fluorophore) and cAMP-d2 (acceptor fluorophore) are made up separately by diluting each 1/20 in conjugate & lysis buffer provided in the kit. 5 μL anti-cAMP cryptate is added to wells of the assay plate, and 5 μL cAMP-d2 is added to wells except non-specific binding (NSB) wells, to which conjugate and lysis buffer are added. […] EC50 values of the synthetic peptides determined in cAMP assays are then determined.
# (§5) Data is transformed to % Delta F as described in the manufacturer's guidelines and analyzed by 4-parameter logistic fit to determine EC50 values. […] To compare the balance of activities at the GLP-1R and GCGR between different peptides and across different conditions, these can be correlated, where the EC50's are related to those of comparator peptides.
# [2] = target: T2, human glucose-dependent insulinotropic peptide receptor (GIPR) (Homo sapiens, UniProt P48546); assay: cAMP assay, human GIPR cells
# T2 construct: expressed in transfected cells
# T2 sequence (P48546 22-466): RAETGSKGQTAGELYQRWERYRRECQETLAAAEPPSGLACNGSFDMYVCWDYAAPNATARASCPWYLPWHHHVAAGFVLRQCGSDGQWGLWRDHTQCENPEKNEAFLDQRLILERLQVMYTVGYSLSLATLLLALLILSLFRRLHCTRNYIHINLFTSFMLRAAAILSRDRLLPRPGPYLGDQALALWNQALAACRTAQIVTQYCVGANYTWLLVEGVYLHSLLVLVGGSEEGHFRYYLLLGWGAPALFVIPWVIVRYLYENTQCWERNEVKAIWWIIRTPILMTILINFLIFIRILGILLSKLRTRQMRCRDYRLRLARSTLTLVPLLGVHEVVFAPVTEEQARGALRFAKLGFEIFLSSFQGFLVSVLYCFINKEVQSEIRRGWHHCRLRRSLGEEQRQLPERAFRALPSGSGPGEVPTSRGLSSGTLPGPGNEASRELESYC
# Procedure: as §1, §2, §3, §4, §5
# [3] = target: T3, human GLP-1 receptor (GLP-1R) (Homo sapiens, UniProt P43220); assay: cAMP assay, human GLP-1R cells; conditions: for pEC50: cAMP assay
# T3 construct: expressed in transfected cells
# T3 sequence (P43220 24-463): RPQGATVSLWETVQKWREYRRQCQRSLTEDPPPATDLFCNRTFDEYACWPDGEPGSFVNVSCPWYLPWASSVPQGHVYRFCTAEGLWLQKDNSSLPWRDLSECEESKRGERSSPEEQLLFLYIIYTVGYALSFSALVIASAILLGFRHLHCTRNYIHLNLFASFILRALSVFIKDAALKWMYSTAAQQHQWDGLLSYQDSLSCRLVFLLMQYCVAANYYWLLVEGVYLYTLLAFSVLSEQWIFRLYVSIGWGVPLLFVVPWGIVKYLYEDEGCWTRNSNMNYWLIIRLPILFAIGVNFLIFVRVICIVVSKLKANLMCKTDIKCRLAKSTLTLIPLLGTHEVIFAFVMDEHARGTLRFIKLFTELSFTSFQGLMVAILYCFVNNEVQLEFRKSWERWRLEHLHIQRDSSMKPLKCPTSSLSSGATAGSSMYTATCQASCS
# Procedure: as §1, §2, §3, §4, §5
# [4] = cAMP assay, first determination (n1), read-out: Primary assay EC50 Gluc-R (n1)
# [5] = cAMP assay, second determination (n2), read-out: Primary assay EC50 Gluc-R (n2)
# [6] = cAMP assay, first determination (n1), read-out: Primary assay EC50 GIP-R (n1)
# [7] = cAMP assay, second determination (n2), read-out: Primary assay EC50 GIP-R (n2)
# [8] = tris-lipidated peptides, first replicate, read-out: Primary assay EC50 GIP-R (n1)
# [9] = tris-lipidated peptides, second replicate, read-out: Primary assay EC50 Gluc-R (n2)
Structure (SMILES),"pEC50 [1, 4]","pEC50 [1, 5]","pEC50 [2, 6]","pEC50 [2, 7]","pEC50 ([3]; first determination (n1), read-out: Primary assay EC50 GLP-1R n1)","pEC50 ([3]; second determination (n2), read-out: Primary assay EC50 GLP-1R n2)","EC50 ([3]; mean of n1 and n2, read-out: Mean pM GLP-1R)","pEC50 ([1]; tris-lipidated peptides, first replicate, read-out: Primary assay EC50 Gluc-R (n1))","pEC50 [2, 8]","pEC50 [1, 9]"
CCCCCCCCCCCCCCCC(=O)N[C@@H](CCC(=O)NCCCC[C@H](NC(=O)[C@H](CCCNC(=N)N)NC(=O)CNC(=O)[C@H](CCCCN)NC(=O)[C@@H](NC(=O)[C@H](CC(C)C)NC(=O)[C@H](Cc1c[nH]c2ccccc12)NC(=O)[C@H](C)NC(=O)[C@@H](NC(=O)[C@H](Cc1ccccc1)NC(=O)[C@H](CCC(=O)O)NC(=O)[C@H](CCCCN)NC(=O)[C@H](C)NC(=O)[C@H](C)NC(=O)[C@H](CCC(N)=O)NC(=O)CNC(=O)[C@H](CCC(=O)O)NC(=O)[C@H](CC(C)C)NC(=O)[C@H](Cc1ccc(O)cc1)NC(=O)[C@H](CO)NC(=O)[C@H](CO)NC(=O)[C@@H](NC(=O)[C@H](CC(=O)O)NC(=O)[C@H](CO)NC(=O)[C@@H](NC(=O)[C@H](Cc1ccccc1)NC(=O)[C@@H](NC(=O)CNC(=O)[C@H](CCC(=O)O)NC(=O)C(C)(C)NC(=O)[C@@H](N)Cc1c[nH]cn1)[C@@H](C)O)[C@@H](C)O)C(C)C)[C@@H](C)CC)C(C)C)C(N)=O)C(=O)O [compound 5],≤ 7.09,≤ 7.09,≤ 7.09,≤ 7.09,11.12,11.26,6.5 pM,,,
CC[C@H](C)[C@H](NC(=O)[C@](C)(Cc1ccccc1)NC(=O)[C@H](CCC(=O)O)NC(=O)[C@H](CCCCNC(=O)CC[C@H](NC(=O)CC[C@H](NC(=O)CCCCCCCCCCCCCCCCC(=O)O)C(=O)O)C(=O)O)NC(=O)[C@H](C)NC(=O)[C@H](C)NC(=O)[C@H](CCC(=O)O)NC(=O)CNC(=O)[C@H](CCC(=O)O)NC(=O)[C@H](CC(C)C)NC(=O)[C@](C)(Cc1ccccc1)NC(=O)[C@H](CO)NC(=O)[C@](C)(CO)NC(=O)[C@@H](NC(=O)[C@H](CC(=O)O)NC(=O)[C@H](CO)NC(=O)[C@@H](NC(=O)[C@](C)(Cc1ccccc1)NC(=O)[C@H](CO)NC(=O)CNC(=O)[C@H](CCC(=O)O)NC(=O)C(C)(C)NC(=O)[C@@H](N)Cc1c[nH]cn1)[C@@H](C)O)C(C)C)C(=O)N[C@@H](C)C(=O)N[C@@](C)(Cc1ccccc1)C(=O)N[C@H](C(=O)N[C@H](C(=O)N[C@@](C)(CCCCN)C(=O)NCC(=O)NCC(N)=O)C(C)C)C(C)C [compound 156],≤ 7.57,≤ 7.57,≤ 7.57,≤ 7.57,,,,,,
CC[C@H](C)[C@H](NC(=O)[C@](C)(Cc1ccccc1)NC(=O)[C@H](CCC(=O)O)NC(=O)[C@H](CCCCNC(=O)COCCOCCNC(=O)COCCOCCNC(=O)CCCCCCCCCCCCCCCCC(=O)O)NC(=O)[C@H](C)NC(=O)[C@H](C)NC(=O)[C@H](CCC(=O)O)NC(=O)CNC(=O)[C@H](CCC(=O)O)NC(=O)[C@H](CC(C)C)NC(=O)[C@](C)(Cc1ccccc1)NC(=O)[C@H](CO)NC(=O)[C@](C)(CO)NC(=O)[C@@H](NC(=O)[C@H](CC(=O)O)NC(=O)[C@H](CO)NC(=O)[C@@H](NC(=O)[C@](C)(Cc1ccccc1)NC(=O)[C@H](CO)NC(=O)CNC(=O)[C@H](CCC(=O)O)NC(=O)C(C)(C)NC(=O)[C@@H](N)Cc1c[nH]cn1)[C@@H](C)O)C(C)C)C(=O)N[C@@H](C)C(=O)N[C@@](C)(Cc1ccccc1)C(=O)N[C@H](C(=O)N[C@H](C(=O)N[C@@](C)(CCCCN)C(=O)NCC(=O)NCC(N)=O)C(C)C)C(C)C [compound 162],≤ 7.59,≤ 7.59,≤ 7.59,≤ 7.59,,,,,,
CCCCCCCCCCCC(=O)N[C@@H](CCC(=O)NCCOCCOCC(=O)NCCOCCOCC(=O)NCCCC[C@H](NC(=O)CNC(=O)[C@H](CCC(=O)O)NC(=O)[C@H](CC(C)C)NC(=O)[C@H](Cc1ccc(O)cc1)NC(=O)[C@H](CO)NC(=O)[C@H](CO)NC(=O)[C@H](CCCCNC(=O)COCCOCCNC(=O)COCCOCCNC(=O)CC[C@H](NC(=O)CCCCCCCCCCC)C(=O)O)NC(=O)[C@H](CC(=O)O)NC(=O)[C@H](CO)NC(=O)[C@@H](NC(=O)[C@](C)(Cc1ccccc1)NC(=O)[C@H](CO)NC(=O)CNC(=O)[C@H](CCC(=O)O)NC(=O)C(C)(C)NC(=O)[C@@H](N)Cc1c[nH]cn1)[C@@H](C)O)C(=O)N[C@@H](C)C(=O)N[C@@H](C)C(=O)N[C@@](C)(CCCCN)C(=O)N[C@@H](CCC(=O)O)C(=O)N[C@@H](Cc1ccccc1)C(=O)N[C@H](C(=O)N[C@@H](C)C(=O)N[C@@H](Cc1ccccc1)C(=O)N[C@@H](CCCCNC(=O)COCCOCCNC(=O)COCCOCCNC(=O)CC[C@H](NC(=O)CCCCCCCCCCC)C(=O)O)C(=O)N[C@H](C(=O)N[C@@H](CCC(=O)O)C(=O)NCC(=O)NCC(N)=O)C(C)C)[C@@H](C)CC)C(=O)O [compound 472] (H-H[Aib]EGS[αMeF]TSDK([AEEA-AEEA-γGlu-Lauroyl])SSYLEGK([AEEA-AEEA-γGlu-Lauroyl])AA[αMeK]EFIAFK([AEEA-AEEA-γGlu-Lauroyl])VEGG-NH2; N-terminus assumed),,,,,,,,7.70,7.70,

# Continued, values first:
"pEC50 [1, 4]","pEC50 [1, 5]","pEC50 [2, 6]","pEC50 [2, 7]","pEC50 ([3]; first determination (n1), read-out: Primary assay EC50 GLP-1R n1)","pEC50 ([3]; second determination (n2), read-out: Primary assay EC50 GLP-1R n2)","EC50 ([3]; mean of n1 and n2, read-out: Mean pM GLP-1R)","pEC50 ([1]; tris-lipidated peptides, first replicate, read-out: Primary assay EC50 Gluc-R (n1))","pEC50 [2, 8]","pEC50 [1, 9]",Structure (SMILES)
,,,,,,,,7.70,7.70,CCCCCCCCCCCC(=O)N[C@@H](CCC(=O)NCCOCCOCC(=O)NCCOCCOCC(=O)NCCCC[C@H](NC(=O)[C@H](CC(=O)O)NC(=O)[C@H](CO)NC(=O)[C@@H](NC(=O)[C@](C)(Cc1ccccc1)NC(=O)[C@H](CO)NC(=O)CNC(=O)[C@H](CCC(=O)O)NC(=O)C(C)(C)NC(=O)[C@@H](N)Cc1c[nH]cn1)[C@@H](C)O)C(=O)N[C@@H](CO)C(=O)N[C@@H](CO)C(=O)N[C@@H](Cc1ccc(O)cc1)C(=O)N[C@@H](CC(C)C)C(=O)N[C@@H](CCC(=O)O)C(=O)NCC(=O)N[C@@H](CCC(=O)O)C(=O)N[C@@H](C)C(=O)N[C@@H](C)C(=O)N[C@@](C)(CCCCN)C(=O)N[C@@H](CCCCNC(=O)COCCOCCNC(=O)COCCOCCNC(=O)CC[C@H](NC(=O)CCCCCCCCCCC)C(=O)O)C(=O)N[C@@H](Cc1ccccc1)C(=O)N[C@H](C(=O)N[C@@H](C)C(=O)N[C@@H](Cc1ccccc1)C(=O)N[C@@H](CCCCNC(=O)COCCOCCNC(=O)COCCOCCNC(=O)CC[C@H](NC(=O)CCCCCCCCCCC)C(=O)O)C(=O)N[C@H](C(=O)N[C@@H](CCC(=O)O)C(=O)NCC(=O)NCC(N)=O)C(C)C)[C@@H](C)CC)C(=O)O [compound 474] (H-H[Aib]EGS[αMeF]TSDK([AEEA-AEEA-γGlu-Lauroyl])SSYLEGEAA[αMeK]K([AEEA-AEEA-γGlu-Lauroyl])FIAFK([AEEA-AEEA-γGlu-Lauroyl])VEGG-NH2; N-terminus assumed)
,,,,,,,,7.70,7.70,CCCCCCCCCCCC(=O)N[C@@H](CCC(=O)NCCOCCOCC(=O)NCCOCCOCC(=O)NCCCC[C@H](NC(=O)[C@H](CCC(=O)O)NC(=O)CNC(=O)[C@H](CCC(=O)O)NC(=O)[C@H](CC(C)C)NC(=O)[C@H](CCCCNC(=O)COCCOCCNC(=O)COCCOCCNC(=O)CC[C@H](NC(=O)CCCCCCCCCCC)C(=O)O)NC(=O)[C@H](CO)NC(=O)[C@](C)(CO)NC(=O)[C@@H](NC(=O)[C@H](CC(=O)O)NC(=O)[C@H](CO)NC(=O)[C@@H](NC(=O)[C@](C)(Cc1ccccc1)NC(=O)[C@H](CO)NC(=O)CNC(=O)[C@H](CCC(=O)O)NC(=O)C(C)(C)NC(=O)[C@@H](N)Cc1c[nH]cn1)[C@@H](C)O)C(C)C)C(=O)N[C@@H](C)C(=O)N[C@@](C)(CCCCN)C(=O)N[C@@H](CCC(=O)O)C(=O)N[C@@H](Cc1ccccc1)C(=O)N[C@H](C(=O)N[C@@H](C)C(=O)N[C@@H](Cc1ccccc1)C(=O)N[C@@H](CCCCNC(=O)COCCOCCNC(=O)COCCOCCNC(=O)CC[C@H](NC(=O)CCCCCCCCCCC)C(=O)O)C(=O)N[C@H](C(=O)N[C@@H](CCC(=O)O)C(=O)NCC(=O)NCC(N)=O)C(C)C)[C@@H](C)CC)C(=O)O [compound 481] (H-H[Aib]EGS[αMeF]TSDV[αMeS]SK([AEEA-AEEA-γGlu-Lauroyl])LEGEK([AEEA-AEEA-γGlu-Lauroyl])A[αMeK]EFIAFK([AEEA-AEEA-γGlu-Lauroyl])VEGG-NH2; N-terminus assumed)

# Reference: patent US10414811B2, “Protease-resistant lipidated GLP-1 analogs” (MEDIMMUNE LIMITED, priority 2015, dated 2019)
